Results as given in article PMC11840605, “Crystallographic and Thermodynamic Evidence of Negative Coupling in the Flavin-Dependent Tryptophan Halogenases AbeH and BorH” (ACS Omega, 2025).
Entries after “also recorded” stand apart in the source; their conditions may differ.

What was measured:
[1] = system: BorH/Trp; test: Isothermal titration calorimetry, FAD into BorH preincubated with Trp; type: binding, uncultured soil actinomycetes
Experimental: (§1) ITC experiments were performed using a VP-ITC isothermal titration calorimeter (MicroCal) in 20 mM HEPES pH 7.5, 350 mM NaCl, 1 mM ethylenediamine tetraacetic acid (EDTA) and 15% (v/v) glycerol. Solutions of AbeH, BorH, FAD (Chem-Implex), and Trp (Acros Organics) were prepared in the same buffer and degassed under vacuum at 30 °C for 20 min before loading in the syringe or cell. To analyze formation of binary complexes, AbeH or BorH was placed inside the cell, and ligand (FAD or Trp) was injected. For ternary complex titration, one ligand was preincubated with the macromolecule for 30 min at 30 °C to form binary complexes of AbeH/FAD, AbeH/Trp, BorH/FAD, and BorH/Trp before titrating with the second ligand. […] Formation of FADH2 by sodium dithionite was verified using absorbance and fluorescence spectrophotometry.
(§2) ITC experiments were performed with reference power set to 10 μcal/s and Milli-Q water in the reference cell. […] Heats of dilution for all titrants were measured by titrating ligand into buffer for binary complex titrations, and by titrating ligand into a solution containing the other ligand but no protein for ternary complex titration. […]
(§3) Titrations were analyzed by manually integrating each injection, subtracting the heat of dilution, and carrying out nonlinear least-squares fit of the calorimetric binding data to a one-site model using Origin 7.0 (Origin Lab). […]

[2] = molecular target: AbeH/Trp (uncultured bacterium, UniProt F6LWA5); test: Isothermal titration calorimetry, FAD into AbeH preincubated with Trp; type: binding, uncultured soil actinomycetes; design: n (ITC, Table S3) / DH (ΔH, ITC, Table S3) / -TDS (-TΔS, ITC, Table S3) / DG (ΔG, ITC, Table S3): unit of the concentration uncertain
Experimental: ITC experiments were performed using a VP-ITC isothermal titration calorimeter (MicroCal) in 20 mM HEPES pH 7.5, 350 mM NaCl, 1 mM ethylenediamine tetraacetic acid (EDTA) and 15% (v/v) glycerol. Solutions of AbeH, BorH, FAD (Chem-Implex), and Trp (Acros Organics) were prepared in the same buffer and degassed under vacuum at 30 °C for 20 min before loading in the syringe or cell. To analyze formation of binary complexes, AbeH or BorH was placed inside the cell, and ligand (FAD or Trp) was injected. For ternary complex titration, one ligand was preincubated with the macromolecule for 30 min at 30 °C to form binary complexes of AbeH/FAD, AbeH/Trp, BorH/FAD, and BorH/Trp before titrating with the second ligand. To test FADH2 binding to AbeH and BorH, FAD was reduced to FADH2 using sodium dithionite and stored under N2. Formation of FADH2 by sodium dithionite was verified using absorbance and fluorescence spectrophotometry.
ITC experiments were performed with reference power set to 10 μcal/s and Milli-Q water in the reference cell. All experiments were done with a pretitration delay of 20 min, a 5 min interval between injections, and a filter period of 2 s in high feedback gain mode. All experiments were performed at 310 rpm to mix the components in cell and titrant. All other VP-ITC instrumental parameters were set to default settings. Heats of dilution for all titrants were measured by titrating ligand into buffer for binary complex titrations, and by titrating ligand into a solution containing the other ligand but no protein for ternary complex titration.
190 μM FAD (2 μL/1 and 15 μL/29 injections) into 28 μM AbeH preincubated with 16 mM Trp (Figure 4C)
190 μM FAD (2 μL/1 and 15 μL/29 injections) into 28 μM AbeH preincubated with 28 mM Trp (Figure S8)
Titrations were analyzed by manually integrating each injection, subtracting the heat of dilution, and carrying out nonlinear least-squares fit of the calorimetric binding data to a one-site model using Origin 7.0 (Origin Lab). Trp binding experiments were subtracted by point-by-point heat of dilution, and FAD and FADH2 binding experiments were subtracted using the mean heat of the last three injections. For the Trp binding data, n was fixed to 1 based on expected stoichiometry of 1:1 based on FDH crystal structures and as proposed for lower c-value titrations in the literature.[23],[25],[82] The other parameters were not constrained during fitting.

[3] = system: AbeH/FAD; test: Isothermal titration calorimetry, Trp into AbeH preincubated with FAD; type: binding, uncultured soil actinomycetes
Experimental: as §1, §2, §3

[4] = molecular target: AbeH (uncultured bacterium, UniProt F6LWA5); test: In vitro halogenation of Trp by AbeH, 1 h reaction, RP-HPLC/MS; type: biochemical, uncultured soil actinomycetes
Experimental: In vitro halogenation reactions contained 7 μM AbeH, 13 μM holo-AbeF (∼20% saturated with FAD), 2.5 mM NADH, 0.5 mM Trp, 50 mM NaCl or NaBr in 10 mM Tris-HCl pH 8.2 in a final volume of 100 μL. Reactions were initiated by addition of NADH and incubated with 200 rpm shaking at 37 °C for 1 h. Reactions were stopped by heating to 95 °C for 10 min followed by centrifugation at 10,000g for 5 min. Reaction mixtures were analyzed by RP-HPLC using a Kromasil C18 RP-analytical column (100 Å pore size, 4.6 × 250 mm) mounted on a Waters 2695 HPLC. Separation used a 14 min gradient from 5% B to 100% B (Solvent A = H2O/CH3CN 95:5, 0.1% TFA; Solvent B = H2O/CH3CN 5/95, 0.1% TFA) with flow rate 0.6 mL/min. Trp, 5-Cl-Trp, and 5-Br-Trp peaks were monitored with absorbance at 280 nm and retention times and yields were analyzed with using retention times and peak areas from standard curves of authentic standards of Trp (ACROS Organics), 5-Cl-Trp (Santa Cruz Biotechnology) and 5-Br-Trp (Santa Cruz Biotechnology). RP-HPLC purified 5-Cl-Trp and 5-Br-Trp peaks from in vitro halogenation reactions were analyzed on a Waters SYNAPT HDMS mass spectrometer using positive ion-mode ESI-MS with leucine enkephalin as internal standard.
Figure S2: AbeH chlorinates and brominates Trp in vitro.
In vitro halogenation reactions were performed with […], […], 2.5 mM NADH, 50 mM NaCl or NaBr in 10 mM Tris-HCl pH 8.2 at 37 °C shaking at 200 rpm with final volume of […]. Standards and reactions were analyzed on a Kromasil C18 column (100 Å pore size, 4.6 x 250 mm) mounted on a Waters HPLC using a 14 min gradient from 5% -100% B (Solvent A:5% CH3CN+0.1% TFA; Solvent B:95% CH3CN+0.1% TFA) with flow rate 0.6 mL/min using 90 µL injections. Baseline subtracted peak integration was performed on Empower software (Waters). (A) Trp standard (tR = 10.3 min). (B) 5-Cl-Trp standard (tR =11.3 min). (C) 5-Br-Trp standard (tR = 11.4 min). (D) 60 min AbeH in vitro chlorination reaction of 0.5 mM Trp (tR = 11.3 min, 100% conversion to 5-Cl-Trp). […]

[5] = cell AbeH/Trp (16 (unit uncertain))
[6] = cell AbeH/Trp (28 (unit uncertain))

AbeH, sequence (F6LWA5 entry or part of it): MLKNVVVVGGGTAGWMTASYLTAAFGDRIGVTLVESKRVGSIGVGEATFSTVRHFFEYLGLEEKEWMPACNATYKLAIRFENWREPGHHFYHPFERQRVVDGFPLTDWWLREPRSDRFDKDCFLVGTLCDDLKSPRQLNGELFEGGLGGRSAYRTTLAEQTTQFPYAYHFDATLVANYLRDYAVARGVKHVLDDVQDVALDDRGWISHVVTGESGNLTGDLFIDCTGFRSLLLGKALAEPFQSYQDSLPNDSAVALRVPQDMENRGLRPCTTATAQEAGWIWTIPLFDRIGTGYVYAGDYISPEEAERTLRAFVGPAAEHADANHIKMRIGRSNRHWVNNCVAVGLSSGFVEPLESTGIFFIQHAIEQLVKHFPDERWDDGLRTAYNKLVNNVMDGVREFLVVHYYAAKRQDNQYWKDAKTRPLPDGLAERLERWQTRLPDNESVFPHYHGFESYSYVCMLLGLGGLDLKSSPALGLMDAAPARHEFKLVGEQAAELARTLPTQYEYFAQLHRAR
AbeH/Trp, sequence (F6LWA5 entry or part of it): as above

SMILES | Binding of FAD to preincubated BorH/Trp by ITC, in words ([1]; 0.63 mM FAD into 10 μM BorH preincubated with 18 mM Trp (95% saturated)) | KD, FAD binding to BorH/Trp, ITC ([1]; BorH preincubated with Trp) | Kd ([2]; Apparent KD, FAD binding to AbeH/Trp, ITC, AbeH preincubated with Trp, depends on the Trp:AbeH molar ratio) [µM] | Heat of binding, titration of FAD into AbeH/Trp, in words ([2]; ITC) | Kd ([2]; KD, FAD into AbeH/Trp, ITC, experiment of Figure 4C, 28 μM AbeH preincubated with 16 mM Trp) [µM] | -TDS (-TΔS, ITC, Table S3) [2, 5] [kcal/mol] | DG (ΔG, ITC, Table S3) [2, 5] [kcal/mol] | DH (ΔH, ITC, Table S3) [2, 5] [kcal/mol] | n (ITC, Table S3) [2, 5] | -TDS (-TΔS, ITC, Table S3) [2, 6] [kcal/mol] | DG (ΔG, ITC, Table S3) [2, 6] [kcal/mol] | DH (ΔH, ITC, Table S3) [2, 6] [kcal/mol] | n (ITC, Table S3) [2, 6] | Binding of Trp to preincubated AbeH/FAD by ITC, in words ([3]; 27 mM Trp into 48 μM AbeH preincubated with 3.3 mM FAD, listed as Trp) | KD, Trp binding to AbeH/FAD, ITC ([3]; AbeH preincubated with FAD) | Conversion to 5-Br-Trp ([4]; 60 min AbeH bromination reaction of 0.5 mM Trp, 50 mM NaBr) | Conversion to 5-Cl-Trp ([4]; 60 min AbeH chlorination reaction of 0.5 mM Trp, 50 mM NaCl) [%] | Product formation by AbeH when NaCl was replaced with NaI ([4]; NaI)
Cc1cc2nc3c(=O)[nH]c(=O)nc-3n(C[C@H](O)[C@H](O)[C@H](O)COP(=O)(O)OP(=O)(O)OC[C@H]3O[C@@H](n4cnc5c(N)ncnc54)[C@H](O)[C@@H]3O)c2cc1C [FAD] | No binding was observed; also recorded: failed to detect any heat of binding; also recorded: no evidence of binding | no binding | 6.3 ± 2.4 | endothermic; also recorded: heat being absorbed rather than released | 2.1 | -15.1 | -7.8 | 7.3 ± 0.4 | 0.58 ± 0.02 | -13.1 | -7.2 | 5.9 ± 1.6 | 0.6 ± 0.1 | – | – | – | – | –
N[C@@H](Cc1c[nH]c2ccccc12)C(=O)O [Tryptophan, L-tryptophan] | – | – | – | – | – | – | – | – | – | – | – | – | – | No binding was observed; also recorded: no evidence of Trp binding | no binding | ~ 80% | 100 | No product peak was observed
